Read-outs that look alike come from different tables or passages of the source.
Tests used:
Format in all cases: binding
[1] = target: T1, HeLa cell extract proteins (Homo sapiens, UniProt P40925)
T1 construct: endogenous in cells; host or cells: HeLa cell extract
T1 sequence (P40925 1-334): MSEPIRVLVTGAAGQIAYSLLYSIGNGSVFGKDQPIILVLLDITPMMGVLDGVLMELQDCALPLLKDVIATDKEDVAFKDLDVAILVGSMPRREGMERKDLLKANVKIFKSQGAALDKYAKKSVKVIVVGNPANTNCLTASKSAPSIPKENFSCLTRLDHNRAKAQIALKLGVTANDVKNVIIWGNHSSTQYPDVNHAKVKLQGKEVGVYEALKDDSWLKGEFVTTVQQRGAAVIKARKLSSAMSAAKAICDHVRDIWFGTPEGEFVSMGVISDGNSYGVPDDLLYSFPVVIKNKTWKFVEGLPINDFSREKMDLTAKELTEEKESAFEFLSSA

[2] = target: T2, HeLa cell extract proteins (Homo sapiens, UniProt Q9UHI6)
T2 construct: endogenous in cells; host or cells: HeLa cell extract
T2 sequence (Q9UHI6 1-824): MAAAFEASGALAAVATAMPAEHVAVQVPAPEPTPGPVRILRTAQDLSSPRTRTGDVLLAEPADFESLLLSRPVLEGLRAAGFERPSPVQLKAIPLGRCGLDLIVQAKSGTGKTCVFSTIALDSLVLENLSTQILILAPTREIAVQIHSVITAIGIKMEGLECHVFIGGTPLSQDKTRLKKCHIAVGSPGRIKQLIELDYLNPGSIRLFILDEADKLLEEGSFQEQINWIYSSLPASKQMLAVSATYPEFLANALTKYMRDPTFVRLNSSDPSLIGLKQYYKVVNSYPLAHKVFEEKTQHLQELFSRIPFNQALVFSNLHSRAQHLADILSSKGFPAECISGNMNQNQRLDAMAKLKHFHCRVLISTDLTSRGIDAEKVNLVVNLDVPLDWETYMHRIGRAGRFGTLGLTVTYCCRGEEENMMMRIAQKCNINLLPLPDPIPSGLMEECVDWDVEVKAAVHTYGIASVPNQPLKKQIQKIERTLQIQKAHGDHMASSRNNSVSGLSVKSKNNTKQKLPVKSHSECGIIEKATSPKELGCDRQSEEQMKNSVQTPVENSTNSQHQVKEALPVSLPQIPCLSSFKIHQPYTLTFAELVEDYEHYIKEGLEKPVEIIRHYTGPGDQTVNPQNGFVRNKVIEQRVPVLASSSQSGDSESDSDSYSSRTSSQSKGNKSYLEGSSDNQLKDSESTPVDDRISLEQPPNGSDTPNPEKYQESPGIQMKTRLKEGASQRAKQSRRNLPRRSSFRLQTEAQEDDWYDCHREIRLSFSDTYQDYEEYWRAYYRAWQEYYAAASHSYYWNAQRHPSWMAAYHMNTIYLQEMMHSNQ

[3] = target: T3, HeLa cell extract proteins (Homo sapiens, UniProt O43242)
T3 construct: endogenous in cells; host or cells: HeLa cell extract
T3 sequence (O43242 whole entry): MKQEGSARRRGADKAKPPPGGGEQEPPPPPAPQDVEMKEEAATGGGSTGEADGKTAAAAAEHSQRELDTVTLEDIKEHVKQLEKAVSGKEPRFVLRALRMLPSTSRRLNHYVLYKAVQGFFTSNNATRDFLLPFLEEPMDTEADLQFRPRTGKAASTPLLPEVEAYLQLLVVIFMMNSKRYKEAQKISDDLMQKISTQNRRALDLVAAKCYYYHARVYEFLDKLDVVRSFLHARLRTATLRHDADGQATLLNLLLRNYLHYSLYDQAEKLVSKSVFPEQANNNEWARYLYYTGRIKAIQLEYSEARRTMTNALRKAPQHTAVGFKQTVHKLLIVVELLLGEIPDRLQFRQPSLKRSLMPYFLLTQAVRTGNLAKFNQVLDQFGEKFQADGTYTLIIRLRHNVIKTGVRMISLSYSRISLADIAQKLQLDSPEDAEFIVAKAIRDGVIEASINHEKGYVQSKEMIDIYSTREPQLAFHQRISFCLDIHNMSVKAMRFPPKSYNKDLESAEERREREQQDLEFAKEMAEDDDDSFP

[4] = target: T4, HeLa cell extract proteins (Homo sapiens, UniProt Q9UNK9)
T4 construct: endogenous in cells; host or cells: HeLa cell extract
T4 sequence (Q9UNK9 1-670): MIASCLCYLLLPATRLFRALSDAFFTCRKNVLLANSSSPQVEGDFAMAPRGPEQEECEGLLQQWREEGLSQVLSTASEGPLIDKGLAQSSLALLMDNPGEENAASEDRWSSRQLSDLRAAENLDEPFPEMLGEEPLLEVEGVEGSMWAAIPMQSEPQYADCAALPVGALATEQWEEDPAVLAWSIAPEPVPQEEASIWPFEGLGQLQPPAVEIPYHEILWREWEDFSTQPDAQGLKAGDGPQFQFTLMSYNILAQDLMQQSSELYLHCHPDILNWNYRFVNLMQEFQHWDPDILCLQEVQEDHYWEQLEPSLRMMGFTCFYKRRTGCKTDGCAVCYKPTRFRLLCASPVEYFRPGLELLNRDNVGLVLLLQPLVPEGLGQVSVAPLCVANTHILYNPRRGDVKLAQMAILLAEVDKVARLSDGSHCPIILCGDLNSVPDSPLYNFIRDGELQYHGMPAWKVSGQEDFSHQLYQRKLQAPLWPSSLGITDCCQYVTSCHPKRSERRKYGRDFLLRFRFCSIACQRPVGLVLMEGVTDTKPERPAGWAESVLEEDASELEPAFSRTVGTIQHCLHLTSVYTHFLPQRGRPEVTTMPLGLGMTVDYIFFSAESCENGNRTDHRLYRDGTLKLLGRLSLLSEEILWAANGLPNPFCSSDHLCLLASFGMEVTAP

[5] = target: T5, HeLa cell extract proteins (Homo sapiens, UniProt O00743)
T5 construct: endogenous in cells; host or cells: HeLa cell extract
T5 sequence (O00743 1-305): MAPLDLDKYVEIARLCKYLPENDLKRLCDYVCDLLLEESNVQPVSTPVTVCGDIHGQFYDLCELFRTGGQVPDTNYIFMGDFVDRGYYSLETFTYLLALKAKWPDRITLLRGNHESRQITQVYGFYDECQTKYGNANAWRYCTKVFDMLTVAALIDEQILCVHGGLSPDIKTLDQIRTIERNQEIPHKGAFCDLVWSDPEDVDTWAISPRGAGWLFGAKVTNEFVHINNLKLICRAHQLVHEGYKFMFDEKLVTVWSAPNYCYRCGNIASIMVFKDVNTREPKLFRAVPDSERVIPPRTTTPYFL

[6] = target: T6, HeLa cell extract proteins (Homo sapiens, UniProt Q9HB71)
T6 construct: endogenous in cells; host or cells: HeLa cell extract
T6 sequence (Q9HB71 whole entry): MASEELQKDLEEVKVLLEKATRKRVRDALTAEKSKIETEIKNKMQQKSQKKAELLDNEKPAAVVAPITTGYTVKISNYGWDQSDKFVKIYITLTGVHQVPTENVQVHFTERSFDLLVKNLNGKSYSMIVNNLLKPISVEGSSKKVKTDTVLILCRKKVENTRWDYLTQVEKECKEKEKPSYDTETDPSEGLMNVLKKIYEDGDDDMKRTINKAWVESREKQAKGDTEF

[7] = target: T7, HeLa cell extract proteins (Homo sapiens, UniProt Q13263)
T7 construct: endogenous in cells; host or cells: HeLa cell extract
T7 sequence (Q13263 whole entry): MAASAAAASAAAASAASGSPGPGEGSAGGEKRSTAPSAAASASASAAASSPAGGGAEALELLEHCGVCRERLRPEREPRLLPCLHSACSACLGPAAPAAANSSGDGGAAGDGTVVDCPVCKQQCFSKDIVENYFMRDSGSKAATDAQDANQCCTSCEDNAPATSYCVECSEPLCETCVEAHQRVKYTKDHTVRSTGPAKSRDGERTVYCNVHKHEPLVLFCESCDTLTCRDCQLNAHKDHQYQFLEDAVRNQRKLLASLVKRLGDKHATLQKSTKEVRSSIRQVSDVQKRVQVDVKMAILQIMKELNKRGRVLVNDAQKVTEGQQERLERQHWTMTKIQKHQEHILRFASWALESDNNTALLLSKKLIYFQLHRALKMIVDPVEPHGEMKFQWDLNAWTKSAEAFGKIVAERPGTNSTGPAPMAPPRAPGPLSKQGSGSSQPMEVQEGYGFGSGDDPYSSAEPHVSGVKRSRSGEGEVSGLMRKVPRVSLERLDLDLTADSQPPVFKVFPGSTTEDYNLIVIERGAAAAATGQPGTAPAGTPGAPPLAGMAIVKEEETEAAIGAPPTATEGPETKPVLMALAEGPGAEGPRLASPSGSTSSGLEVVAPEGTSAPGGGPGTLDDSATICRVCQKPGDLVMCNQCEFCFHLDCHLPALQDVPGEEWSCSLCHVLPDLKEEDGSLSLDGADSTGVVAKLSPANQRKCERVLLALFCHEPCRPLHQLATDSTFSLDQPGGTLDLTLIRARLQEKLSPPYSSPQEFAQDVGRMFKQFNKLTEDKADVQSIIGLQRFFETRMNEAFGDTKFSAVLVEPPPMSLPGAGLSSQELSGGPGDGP

[8] = target: T8, HeLa cell extract proteins (Homo sapiens, UniProt P11940)
T8 construct: endogenous in cells; host or cells: HeLa cell extract
T8 sequence (P11940 whole entry): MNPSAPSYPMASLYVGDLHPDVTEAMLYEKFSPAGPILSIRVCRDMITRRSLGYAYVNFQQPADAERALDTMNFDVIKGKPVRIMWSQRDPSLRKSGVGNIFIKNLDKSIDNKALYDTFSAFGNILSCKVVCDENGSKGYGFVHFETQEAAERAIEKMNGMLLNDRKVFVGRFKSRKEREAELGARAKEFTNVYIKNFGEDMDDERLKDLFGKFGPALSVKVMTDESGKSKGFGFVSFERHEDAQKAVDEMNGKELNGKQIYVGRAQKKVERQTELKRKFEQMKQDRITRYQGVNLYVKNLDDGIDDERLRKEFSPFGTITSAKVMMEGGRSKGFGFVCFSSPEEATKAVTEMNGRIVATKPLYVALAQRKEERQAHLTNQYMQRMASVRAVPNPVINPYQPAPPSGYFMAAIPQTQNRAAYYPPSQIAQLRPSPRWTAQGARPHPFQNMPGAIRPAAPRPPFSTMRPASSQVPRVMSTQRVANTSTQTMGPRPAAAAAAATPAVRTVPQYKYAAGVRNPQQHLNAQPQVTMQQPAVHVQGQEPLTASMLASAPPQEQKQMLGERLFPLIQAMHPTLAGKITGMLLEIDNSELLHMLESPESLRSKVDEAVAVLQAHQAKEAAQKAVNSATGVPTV

[9] = target: T9, HeLa cell extract proteins (Homo sapiens, UniProt P09496)
T9 construct: endogenous in cells; host or cells: HeLa cell extract
T9 sequence (P09496 1-248): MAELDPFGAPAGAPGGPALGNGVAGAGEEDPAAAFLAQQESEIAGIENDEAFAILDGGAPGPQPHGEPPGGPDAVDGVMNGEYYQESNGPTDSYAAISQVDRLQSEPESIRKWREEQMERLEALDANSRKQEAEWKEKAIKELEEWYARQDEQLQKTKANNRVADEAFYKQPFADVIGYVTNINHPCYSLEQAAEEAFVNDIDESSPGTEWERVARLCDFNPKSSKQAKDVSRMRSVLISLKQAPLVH

[10] = HeLa, protein MDH1 (MALATE DEHYDROGENASE, CYTOPLASMIC.)
[11] = HeLa, protein CACYBP (ISOFORM 1 OF CALCYCLIN-BINDING PROTEIN)

`Nc1nc2cccc(-c3ccccc3)c2n1Cc1ccc(Cl)c(Cl)c1` [compound 3] was tested, and the “fold changes relative to vehicle control” value [1, 10] was 0.87 fold, the “fold changes relative to vehicle control” value ([2]; captured protein DDX20, HeLa) was 0.92 and the “fold changes relative to vehicle control” value ([3]; protein PSMD3, HeLa) was 1.1. For the same compound, the “fold changes relative to vehicle control” value ([4]; captured protein ANGEL1, HeLa) was 0.95, the “fold changes relative to vehicle control” value ([5]; HeLa, protein PPP6C) was 1.04 and the “fold changes relative to vehicle control” value ([6]; protein CACYBP, HeLa) was 0.93. For the same compound, the “fold changes relative to vehicle control” value ([7]; protein TRIM28, HeLa) was 1.02, the “fold changes relative to vehicle control” value ([8]; HeLa, protein PABPC1) was 0.94 and the “fold changes relative to vehicle control” value ([9]; HeLa, protein CLTA) was 1.09.

`CCCCCCOc1ccc(Cc2cnc(N)nc2N)cc1` [compound 1] was tested, and the “fold changes relative to vehicle control” value [1, 10] was 1.3 fold, the “fold changes relative to vehicle control” value ([2]; captured protein DDX20, HeLa) was 0.89 and the “fold changes relative to vehicle control” value ([3]; protein PSMD3, HeLa) was 1.21. The “fold changes relative to vehicle control” value ([4]; captured protein ANGEL1, HeLa) was 1.04, the “fold changes relative to vehicle control” value ([5]; HeLa, protein PPP6C) was 1.01 and the “fold changes relative to vehicle control” value ([6]; protein CACYBP, HeLa) was 1.12. For the same compound, the “fold changes relative to vehicle control” value ([7]; protein TRIM28, HeLa) was 1.12, the “fold changes relative to vehicle control” value ([8]; HeLa, protein PABPC1) was 0.97 and the “fold changes relative to vehicle control” value ([9]; HeLa, protein CLTA) was 0.68.

`NCCCNc1ccc(C(=O)NC(CCC(=O)O)C(=O)O)cc1` (stereo not drawn) [compound 7] was tested, and the “fold changes relative to vehicle control” value ([1]; HeLa, protein MDH1) was 0.93, the “fold changes relative to vehicle control” value ([2]; HeLa, protein DDX20) was 0.94 and the “fold changes relative to vehicle control” value ([3]; protein PSMD3, HeLa) was 1.02. For the same compound, the “fold changes relative to vehicle control” value ([4]; protein ANGEL1, HeLa) was 1, the “fold changes relative to vehicle control” value ([5]; HeLa, protein PPP6C) was 1.04 and the “fold changes relative to vehicle control” value [6, 11] was 1.16. For the same compound, the “fold changes relative to vehicle control” value ([7]; protein TRIM28, HeLa) was 0.9, the “fold changes relative to vehicle control” value ([8]; HeLa, protein PABPC1) was 1.05 and the “fold changes relative to vehicle control” value ([9]; HeLa, captured protein CLTA) was 1.4.

For `CCCCCCOc1cccc(Cc2cnc(N)nc2N)c1` [compound 2], the “fold changes relative to vehicle control” value [1, 10] was 2.15 fold, the “fold changes relative to vehicle control” value ([2]; captured protein DDX20, HeLa) was 1 and the “fold changes relative to vehicle control” value ([3]; protein PSMD3, HeLa) was 1.51. For the same compound, the “fold changes relative to vehicle control” value ([4]; captured protein ANGEL1, HeLa) was 0.94, the “fold changes relative to vehicle control” value ([5]; HeLa, protein PPP6C) was 0.99 and the “fold changes relative to vehicle control” value ([6]; protein CACYBP, HeLa) was 1.37. The “fold changes relative to vehicle control” value ([7]; protein TRIM28, HeLa) was 1.44, the “fold changes relative to vehicle control” value ([8]; HeLa, protein PABPC1) was 1.19 and the “fold changes relative to vehicle control” value ([9]; HeLa, protein CLTA) was 0.99.

`NCCOCCOCC(=O)Nc1nc2ncc(CNc3ccc(C(=O)NC(CCC(=O)O)C(=O)O)cc3)nc2c(=O)[nH]1` (stereo not drawn) [compound 6] was tested, and the “fold changes relative to vehicle control” value ([1]; HeLa, protein MDH1) was 1.42, the “fold changes relative to vehicle control” value ([2]; HeLa, protein DDX20) was 0.98 and the “fold changes relative to vehicle control” value ([3]; protein PSMD3, HeLa) was 1.17. The “fold changes relative to vehicle control” value ([4]; protein ANGEL1, HeLa) was 1.02, the “fold changes relative to vehicle control” value ([5]; HeLa, protein PPP6C) was 1.05 and the “fold changes relative to vehicle control” value [6, 11] was 1.16. The “fold changes relative to vehicle control” value ([7]; protein TRIM28, HeLa) was 1.02, the “fold changes relative to vehicle control” value ([8]; HeLa, protein PABPC1) was 0.97 and the “fold changes relative to vehicle control” value ([9]; HeLa, captured protein CLTA) was 1.48.

In the case of `Nc1nc2[nH]cc(CCc3ccc(C(=O)N[C@@H](CCC(=O)O)C(=O)O)cc3)c2c(=O)[nH]1` [PTX, pemetrexed], the “fold changes relative to vehicle control” value [1] is reported as 1.2, the “fold changes relative to vehicle control” value [2] is reported as 0.97 and the “fold changes relative to vehicle control” value [3] is reported as 1.1. The “fold changes relative to vehicle control” value [4] was 0.94, the “fold changes relative to vehicle control” value [5] was 0.94 and the “fold changes relative to vehicle control” value [6] was 1. The “fold changes relative to vehicle control” value [7] was 0.97, the “fold changes relative to vehicle control” value [8] was 0.96 and the “fold changes relative to vehicle control” value [9] was 1.55.

In the case of `Nc1nc2c(c(=O)[nH]1)N(C=O)C(CNc1ccc(C(=O)N[C@@H](CCC(=O)O)C(=O)O)cc1)CN2` (stereo partly drawn) [LEU, leucovorin], the “fold changes relative to vehicle control” value ([1]; HeLa, protein MDH1) is reported as 1.01, the “fold changes relative to vehicle control” value ([2]; HeLa, protein DDX20) is reported as 0.93 and the “fold changes relative to vehicle control” value ([3]; protein PSMD3, HeLa) is reported as 1.08. The “fold changes relative to vehicle control” value ([4]; protein ANGEL1, HeLa) was 0.84, the “fold changes relative to vehicle control” value ([5]; HeLa, protein PPP6C) was 0.99 and the “fold changes relative to vehicle control” value [6, 11] was 0.85. For the same compound, the “fold changes relative to vehicle control” value ([7]; protein TRIM28, HeLa) was 0.88, the “fold changes relative to vehicle control” value ([8]; HeLa, protein PABPC1) was 0.98 and the “fold changes relative to vehicle control” value ([9]; HeLa, captured protein CLTA) was 1.19.

Source: paper PMC6199744, “Development of Chemical Proteomics for the Folateome and Analysis of the Kinetoplastid Folateome” (ACS Infectious Diseases, 2018)
